From US20250188110A1, “SPECIFIC SMALL MOLECULE INHIBITORS THAT BLOCK KMT9 METHYLTRANSFERASE ACTIVITY AND FUNCTION” (ALBERT-LUDWIGS-UNIVERSITÄT FREIBURG, priority 2021, published 2025)

Legend:
HT-1376 = test: Further cell proliferation assay, X-Celligence RTCA, HT-1376; format: cell-based; conditions: Homo sapiens
Description: (§1) Compound no. 1 (Name 287) was tested in further cell proliferation assays using different cancer cell lines. Cell proliferation was determined using X-Celligence RTCA system (Roche). For real-time recording of CAL-29, VM-CUB1, SW480, SKBR3, HT-1376, PC-3M, A549, UM-UC-3, DU145 and 22RV1, between 2500 and 20000 cells/well (depending on the cell type) were seeded in 16 well E-plates (Roche). Cells were seeded in presence of DMSO or Compound no. 1 (Name 287) 24 h before seeding in E-plates. Cell indices were automatically recorded every 15 minutes. Relative velocities represent the change of the cell index over time. The ECso values of compound no.

SKBR3 = test: Further cell proliferation assay, X-Celligence RTCA, SKBR3; format: cell-based; conditions: Homo sapiens, SK-BR-3
Description: as §1

SW480 = test: Further cell proliferation assay, X-Celligence RTCA, SW480; format: cell-based; conditions: Homo sapiens
Description: as §1

A549 = test: Further cell proliferation assay, X-Celligence RTCA, A549; format: cell-based; conditions: Homo sapiens
Description: as §1

CAL-29 = test: Further cell proliferation assay, X-Celligence RTCA, CAL-29; format: cell-based
Description: as §1

VM-CUB1 = test: Further cell proliferation assay, X-Celligence RTCA, VM-CUB1; format: cell-based; conditions: Homo sapiens, VM-CUB-1
Description: as §1

DU145 = test: Further cell proliferation assay, X-Celligence RTCA, DU145; format: cell-based; conditions: Homo sapiens, DU-145; DU145, castration resistant prostate cancer cells
Description: as §1

22RV1 = test: Further cell proliferation assay, X-Celligence RTCA, 22RV1; format: cell-based; conditions: Homo sapiens; 22RV1, castration resistant prostate cancer cells
Description: as §1

PC-3M = test: Further cell proliferation assay, X-Celligence RTCA, PC-3M; format: cell-based; conditions: Homo sapiens, castration resistant prostate cancer cells
Description: as §1

UM-UC-3 = test: Further cell proliferation assay, X-Celligence RTCA, UM-UC-3; format: cell-based; conditions: Homo sapiens, UMUC3
Description: as §1

KMT9 [1] = biological target: T1, KMT9 (Homo sapiens, UniProt Q9Y5N5); test: Microscale thermophoresis (MST) KMT9 binding; conditions: His-tag labelled KMT9 20 nM; read-out: MST (Kd)
T1 sequence (Q9Y5N5 1-214): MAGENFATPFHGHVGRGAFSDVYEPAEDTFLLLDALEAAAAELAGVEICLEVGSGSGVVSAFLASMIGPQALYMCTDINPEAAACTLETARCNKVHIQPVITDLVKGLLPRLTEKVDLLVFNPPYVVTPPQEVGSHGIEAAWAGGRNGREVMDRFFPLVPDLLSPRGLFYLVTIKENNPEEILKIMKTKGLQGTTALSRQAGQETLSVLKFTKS
T1 sequence (Q9UI30 1-120 isoform Q9UI30-2 partner): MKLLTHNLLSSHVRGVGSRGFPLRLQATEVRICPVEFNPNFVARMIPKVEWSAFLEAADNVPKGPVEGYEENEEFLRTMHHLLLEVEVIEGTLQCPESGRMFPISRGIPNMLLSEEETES
Outline: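 His-tagged KMT9 (20 nM), RED-Tris-NTA labelled, titrated with varying compound concentrations in 25 mM HEPES pH 7.5, 100 mM NaCl, 1 mM DTT, 0.05% Tween. MST at 40% MST and 100% LED power, Nano-RED excitation; Kd binned A ≤10 nM, B 10–100, C 100–1000, D >1000 nM.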

KMT9 [2] = biological target: T1, KMT9; test: KMT9 methyltransferase inhibition assay, MTaseGlo luminescence (from entry 155); format: biochemical; conditions: MTaseGlo procedure (entries from 155); 100 nM KMT9, 5 μM ETF1, 1 μM SAM; read-out: Inhibition (IC50)
Outline: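 KMT9 (100 nM final) pre-incubated with inhibitor for 15 min at room temperature, then reacted with 5 μM ETF1 and 1 μM SAM for 2 h at 30° C. at 2% DMSO final. MTaseGlo luminescence read after 60 min detection; IC50 reported in four potency bins.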

KMT9 [3] = biological target: T1, KMT9; test: KMT9 thermal shift assay (SyproOrange); format: binding; conditions: 500 µM compound, 2 μM KMT9; read-out: Thermal shift (ΔTm)
Outline: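 Recombinant KMT9 was incubated with compound and SyproOrange at 25° C in 50 mM BTP pH 8.5, 1 mM MgCl2, 1 mM DTT. It was then heated from 20° C to 95° C at 1° C per 15 s with fluorescence read each step. Tm came from a Boltzmann sigmoidal fit; ΔTm relative to DMSO control, binned in 5 K ranges.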

Compound | EC50 (HT-1376) [µM] | EC50 (SKBR3) [µM] | EC50 (SW480) [µM] | EC50 (A549) [µM] | EC50 (CAL-29) [µM] | EC50 (VM-CUB1) [µM] | EC50 (DU145) [µM] | EC50 (22RV1) [µM] | EC50 (PC-3M) [µM] | EC50 (UM-UC-3) [µM] | Kd (KMT9 [1]) [µM] | IC50 (KMT9 [2]) [µM] | ΔTm at 500 µM (KMT9 [3]) [°C]
CNc1ncnc2c1ccn2[C@@H]1C[C@H](CNCCCNCCc2cccc(Oc3ccccc3)c2)[C@@H](O)[C@H]1O [Compound 287, (1R,2S,3R,5R)-3-(4-(methylamino)-7H-pyrrolo[2,3-d]pyrimidin-7-yl)-5-(((3-((3-phenoxyphenethyl)amino)propyl)amino)methyl) cyclopentane-1,2-diol] | 12.6 | 6.6 | 9.12 | 12 | 6.45 | 6.17 | 19 | 16.6 | 15.8 | 17 | – | – | –
Nc1cc(-c2cnsc2)cc([C@H]2C[C@@H](n3ccc4c(N)nc(Cl)nc43)[C@H](O)[C@@H]2O)c1 [Compound 681, (1R,2S,3R,5R)-3-(4-Amino-2-chloro-7H-pyrrolo[2,3-d]pyrimidin-7-yl)-5-(3-amino-5-(isothiazol-4-yl)phenyl)cyclopentane-1,2-diol] | – | – | – | – | – | – | – | – | – | – | 0.01 to 0.1 | 0.1 to 1 | 10 to 15
COc1ccc([C@H]2C[C@@H](n3ccc4c(N)nc(Cl)nc43)[C@H](O)[C@@H]2O)cc1 [Compound 682, (1R,2S,3R,5R)-3-{4-Amino-2-chloropyrrolo[2,3-d]pyrimidin-7-yl}-5-(4-methoxyphenyl)cyclopentane-1,2-diol] | – | – | – | – | – | – | – | – | – | – | 0.01 to 0.1 | 0.1 to 1 | 10 to 15
